Source: patent EP4467141A1, “PYRAZOLO-QUINOLINES AS SELECTIVE INHIBITORS OF GENOTOXIC STRESS-INDUCED IKK/NF- KB PATHWAYS FOR CANCER THERAPY” (Max-Delbrück-Centrum für Molekulare Medizin in der …, priority 2023, dated 2024)

Columns and labels:
Assay in all cases: Kinase panel study
Type in all cases: biochemical
Settings in all cases: read-out: Percentage of inhibition; for inhibition at 1 µM: 1000nM; for inhibition at 10 µM: 10000nM
[1] = target: T1, ERBB4 (HER4) (Homo sapiens, UniProt Q15303)
T1 construct: purchased Thermo Fisher Scientific
Outline: (§1)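 ZLyte/Adapta biochemical kinase assays, standard operating procedures; % inhibition at 1 µM or 10 µM test compound; IC50 determined in panel.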

[2] = target: T2, PAK1 (Homo sapiens, UniProt Q13153)
T2 construct: purchased Thermo Fisher Scientific
Outline: as §1

[3] = target: T3, PIK3CA E545K/PIK3R1 (p11 0 alpha E545K/p85 alpha) (Homo sapiens, UniProt P42336, E545K)
T3 construct: purchased Thermo Fisher Scientific
Outline: as §1

[4] = target: T4, KSR2 (Homo sapiens, UniProt Q6VAB6)
T4 construct: purchased Thermo Fisher Scientific
T4 sequence (Q6VAB6 1-950): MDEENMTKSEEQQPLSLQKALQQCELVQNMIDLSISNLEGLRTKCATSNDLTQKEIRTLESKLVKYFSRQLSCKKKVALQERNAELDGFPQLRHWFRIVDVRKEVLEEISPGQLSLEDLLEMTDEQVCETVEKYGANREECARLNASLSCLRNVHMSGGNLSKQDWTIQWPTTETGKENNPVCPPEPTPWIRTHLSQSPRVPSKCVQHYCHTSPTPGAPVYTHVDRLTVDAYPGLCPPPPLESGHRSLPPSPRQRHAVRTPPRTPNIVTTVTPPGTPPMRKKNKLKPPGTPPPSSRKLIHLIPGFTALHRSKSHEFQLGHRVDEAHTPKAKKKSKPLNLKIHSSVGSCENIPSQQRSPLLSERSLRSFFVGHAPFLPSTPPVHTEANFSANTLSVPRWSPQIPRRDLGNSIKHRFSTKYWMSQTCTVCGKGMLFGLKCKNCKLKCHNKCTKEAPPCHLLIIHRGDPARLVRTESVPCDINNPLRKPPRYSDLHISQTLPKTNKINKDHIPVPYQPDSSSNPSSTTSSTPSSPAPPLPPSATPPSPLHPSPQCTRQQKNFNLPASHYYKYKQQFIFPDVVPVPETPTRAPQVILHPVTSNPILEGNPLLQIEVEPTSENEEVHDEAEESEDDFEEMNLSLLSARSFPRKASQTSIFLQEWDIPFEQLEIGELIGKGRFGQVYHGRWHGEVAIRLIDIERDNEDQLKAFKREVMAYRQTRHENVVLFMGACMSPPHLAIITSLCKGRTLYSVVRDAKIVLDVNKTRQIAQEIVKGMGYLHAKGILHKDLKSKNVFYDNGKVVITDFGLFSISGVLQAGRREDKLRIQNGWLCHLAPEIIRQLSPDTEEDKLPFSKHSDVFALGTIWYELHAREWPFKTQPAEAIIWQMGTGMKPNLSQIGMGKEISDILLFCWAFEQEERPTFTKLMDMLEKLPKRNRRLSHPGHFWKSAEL
Outline: as §1

[5] = target: T5, SBK1 (Homo sapiens, UniProt Q52WX2)
T5 construct: purchased Thermo Fisher Scientific
Outline: as §1

[6] = target: T6, PRKACA (PKA) (Homo sapiens, UniProt P17612)
T6 construct: purchased Thermo Fisher Scientific
Outline: as §1

[7] = target: T7, PRKCQ (PKC theta) (Homo sapiens, UniProt Q04759)
T7 construct: purchased Thermo Fisher Scientific
Outline: as §1

[8] = target: T8, FGFR2 (Homo sapiens, UniProt P21802)
T8 construct: purchased Thermo Fisher Scientific
Outline: as §1

[9] = target: T9, KIT V559D (Homo sapiens, UniProt P10721, V559D)
T9 construct: purchased Thermo Fisher Scientific
Outline: as §1

T2 sequence (Q13153 whole entry): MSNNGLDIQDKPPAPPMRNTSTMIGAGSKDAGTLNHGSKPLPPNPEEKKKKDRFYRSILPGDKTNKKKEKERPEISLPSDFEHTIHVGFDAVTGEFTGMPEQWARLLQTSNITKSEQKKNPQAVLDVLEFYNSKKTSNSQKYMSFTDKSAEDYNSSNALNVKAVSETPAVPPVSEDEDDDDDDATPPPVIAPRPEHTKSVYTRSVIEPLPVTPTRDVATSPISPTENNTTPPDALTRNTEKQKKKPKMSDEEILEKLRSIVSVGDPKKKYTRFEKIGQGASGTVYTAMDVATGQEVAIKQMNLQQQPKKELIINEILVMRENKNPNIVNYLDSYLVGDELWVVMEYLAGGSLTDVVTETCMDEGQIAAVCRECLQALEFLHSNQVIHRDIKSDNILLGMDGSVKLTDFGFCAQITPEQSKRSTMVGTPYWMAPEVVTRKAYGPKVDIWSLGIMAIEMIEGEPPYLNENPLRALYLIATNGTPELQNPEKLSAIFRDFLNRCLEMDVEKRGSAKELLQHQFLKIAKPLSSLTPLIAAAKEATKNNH
T8 sequence (P21802 22-821): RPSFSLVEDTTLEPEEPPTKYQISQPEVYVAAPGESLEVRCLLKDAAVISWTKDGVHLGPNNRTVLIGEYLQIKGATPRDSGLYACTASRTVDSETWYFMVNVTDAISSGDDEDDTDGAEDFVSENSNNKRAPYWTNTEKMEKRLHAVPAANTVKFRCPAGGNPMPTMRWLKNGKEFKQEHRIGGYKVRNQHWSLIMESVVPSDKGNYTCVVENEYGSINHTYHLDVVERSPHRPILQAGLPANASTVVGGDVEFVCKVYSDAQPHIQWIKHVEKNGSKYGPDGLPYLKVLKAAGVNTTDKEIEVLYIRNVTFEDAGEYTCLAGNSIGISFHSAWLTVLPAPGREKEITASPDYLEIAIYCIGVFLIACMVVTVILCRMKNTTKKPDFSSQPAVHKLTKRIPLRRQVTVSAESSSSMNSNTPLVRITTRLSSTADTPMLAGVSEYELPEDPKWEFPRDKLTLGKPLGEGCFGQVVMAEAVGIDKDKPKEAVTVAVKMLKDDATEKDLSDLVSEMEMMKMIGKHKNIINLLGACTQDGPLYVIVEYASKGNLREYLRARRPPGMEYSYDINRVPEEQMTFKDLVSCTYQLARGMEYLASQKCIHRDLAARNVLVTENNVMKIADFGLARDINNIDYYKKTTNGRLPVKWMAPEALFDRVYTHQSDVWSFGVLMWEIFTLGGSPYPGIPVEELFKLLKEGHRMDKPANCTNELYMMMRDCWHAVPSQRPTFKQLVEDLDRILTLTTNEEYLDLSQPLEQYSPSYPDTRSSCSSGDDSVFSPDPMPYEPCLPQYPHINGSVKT
T1 sequence (Q15303 26-1308): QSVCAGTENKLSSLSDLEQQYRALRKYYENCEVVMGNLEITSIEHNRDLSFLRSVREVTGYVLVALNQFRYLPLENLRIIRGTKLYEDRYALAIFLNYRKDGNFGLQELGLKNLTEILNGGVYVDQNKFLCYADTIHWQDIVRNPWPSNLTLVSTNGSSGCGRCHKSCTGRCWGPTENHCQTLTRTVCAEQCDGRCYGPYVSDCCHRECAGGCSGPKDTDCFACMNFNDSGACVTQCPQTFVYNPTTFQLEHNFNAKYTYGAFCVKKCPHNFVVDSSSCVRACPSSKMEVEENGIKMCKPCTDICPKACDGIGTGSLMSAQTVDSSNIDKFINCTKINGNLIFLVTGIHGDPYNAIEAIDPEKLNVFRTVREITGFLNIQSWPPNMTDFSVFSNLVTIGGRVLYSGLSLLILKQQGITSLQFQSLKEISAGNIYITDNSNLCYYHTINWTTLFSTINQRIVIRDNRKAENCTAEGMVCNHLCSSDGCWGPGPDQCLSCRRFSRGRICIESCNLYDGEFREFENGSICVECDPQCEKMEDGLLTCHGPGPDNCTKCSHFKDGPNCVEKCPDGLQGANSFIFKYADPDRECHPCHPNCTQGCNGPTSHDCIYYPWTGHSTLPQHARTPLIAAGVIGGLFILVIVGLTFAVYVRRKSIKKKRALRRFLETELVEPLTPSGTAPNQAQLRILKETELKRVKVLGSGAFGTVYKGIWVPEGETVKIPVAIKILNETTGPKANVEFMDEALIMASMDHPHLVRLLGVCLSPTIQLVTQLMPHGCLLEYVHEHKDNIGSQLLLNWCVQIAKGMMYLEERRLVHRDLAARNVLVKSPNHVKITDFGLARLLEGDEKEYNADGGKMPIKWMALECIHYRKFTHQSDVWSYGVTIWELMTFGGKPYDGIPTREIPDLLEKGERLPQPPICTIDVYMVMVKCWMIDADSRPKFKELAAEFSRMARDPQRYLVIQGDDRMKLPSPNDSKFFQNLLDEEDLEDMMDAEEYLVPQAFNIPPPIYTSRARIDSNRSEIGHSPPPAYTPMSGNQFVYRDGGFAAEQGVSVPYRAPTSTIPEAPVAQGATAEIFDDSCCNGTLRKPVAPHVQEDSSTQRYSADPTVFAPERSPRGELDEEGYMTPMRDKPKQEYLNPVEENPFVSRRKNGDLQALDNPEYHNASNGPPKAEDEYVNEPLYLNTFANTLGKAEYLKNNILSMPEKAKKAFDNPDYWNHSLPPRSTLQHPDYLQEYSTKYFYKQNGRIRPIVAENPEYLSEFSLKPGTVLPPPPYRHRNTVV
T9 sequence (P10721 26-976 V559D): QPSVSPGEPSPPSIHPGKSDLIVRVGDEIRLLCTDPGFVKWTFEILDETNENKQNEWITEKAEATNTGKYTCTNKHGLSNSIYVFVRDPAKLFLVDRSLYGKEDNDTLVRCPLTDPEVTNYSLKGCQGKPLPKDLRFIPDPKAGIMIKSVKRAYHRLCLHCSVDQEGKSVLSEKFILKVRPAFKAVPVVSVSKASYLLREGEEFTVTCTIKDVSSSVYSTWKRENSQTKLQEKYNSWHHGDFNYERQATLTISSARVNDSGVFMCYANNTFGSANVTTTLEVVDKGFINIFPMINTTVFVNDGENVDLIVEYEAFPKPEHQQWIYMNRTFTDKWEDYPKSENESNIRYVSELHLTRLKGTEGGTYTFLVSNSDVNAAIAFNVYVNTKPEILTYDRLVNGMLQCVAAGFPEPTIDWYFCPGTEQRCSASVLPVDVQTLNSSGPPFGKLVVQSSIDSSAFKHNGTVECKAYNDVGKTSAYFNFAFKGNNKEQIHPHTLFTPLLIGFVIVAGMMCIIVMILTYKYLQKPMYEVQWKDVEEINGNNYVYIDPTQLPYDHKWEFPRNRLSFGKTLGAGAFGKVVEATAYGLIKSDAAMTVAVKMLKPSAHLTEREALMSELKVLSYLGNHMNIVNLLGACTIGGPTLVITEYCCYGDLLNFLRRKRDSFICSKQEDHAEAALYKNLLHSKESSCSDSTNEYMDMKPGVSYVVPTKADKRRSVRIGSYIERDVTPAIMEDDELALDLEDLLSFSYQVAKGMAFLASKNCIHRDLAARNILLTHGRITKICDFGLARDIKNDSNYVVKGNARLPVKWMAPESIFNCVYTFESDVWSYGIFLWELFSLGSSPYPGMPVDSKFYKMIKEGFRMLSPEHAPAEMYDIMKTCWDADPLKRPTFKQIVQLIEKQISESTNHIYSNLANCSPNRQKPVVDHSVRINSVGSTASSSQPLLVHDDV
T7 sequence (Q04759 whole entry): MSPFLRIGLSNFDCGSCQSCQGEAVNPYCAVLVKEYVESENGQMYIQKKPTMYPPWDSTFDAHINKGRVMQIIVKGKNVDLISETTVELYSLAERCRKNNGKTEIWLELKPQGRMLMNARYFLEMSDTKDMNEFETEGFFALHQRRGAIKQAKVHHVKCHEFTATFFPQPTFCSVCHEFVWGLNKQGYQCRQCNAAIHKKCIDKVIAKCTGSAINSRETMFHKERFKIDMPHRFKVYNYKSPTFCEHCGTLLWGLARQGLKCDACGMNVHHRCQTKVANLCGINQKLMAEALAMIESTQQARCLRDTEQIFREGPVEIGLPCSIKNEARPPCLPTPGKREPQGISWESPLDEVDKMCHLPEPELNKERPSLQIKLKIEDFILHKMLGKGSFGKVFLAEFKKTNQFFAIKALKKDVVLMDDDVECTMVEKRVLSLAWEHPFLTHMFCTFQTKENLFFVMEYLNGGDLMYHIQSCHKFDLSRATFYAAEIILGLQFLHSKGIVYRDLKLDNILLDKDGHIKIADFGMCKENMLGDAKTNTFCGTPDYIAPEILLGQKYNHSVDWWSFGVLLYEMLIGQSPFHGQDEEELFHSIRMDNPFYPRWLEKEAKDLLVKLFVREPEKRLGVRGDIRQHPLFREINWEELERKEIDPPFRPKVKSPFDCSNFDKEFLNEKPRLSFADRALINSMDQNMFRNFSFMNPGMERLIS
T5 sequence (Q52WX2 whole entry): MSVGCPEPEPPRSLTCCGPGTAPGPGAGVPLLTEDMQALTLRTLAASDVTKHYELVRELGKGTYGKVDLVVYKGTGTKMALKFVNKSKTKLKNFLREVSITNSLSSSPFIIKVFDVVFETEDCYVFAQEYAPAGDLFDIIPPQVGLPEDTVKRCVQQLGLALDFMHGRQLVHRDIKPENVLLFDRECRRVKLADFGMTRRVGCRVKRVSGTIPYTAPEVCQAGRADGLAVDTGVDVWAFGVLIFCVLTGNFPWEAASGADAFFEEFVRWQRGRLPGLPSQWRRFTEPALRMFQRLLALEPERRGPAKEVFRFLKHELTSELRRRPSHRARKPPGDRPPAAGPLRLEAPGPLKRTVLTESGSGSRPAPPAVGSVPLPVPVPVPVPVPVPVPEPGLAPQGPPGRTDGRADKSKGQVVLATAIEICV

For `COc1ccc2c(c1OC)c(=O)n1c3ccc(O)cc3c3ccnc2c31` [MW01, 5-Hydroxy-10,11-dimethoxy-9H-benzo[c]indolo[3,2,1-ij][1,5]naphthyridin-9-one], the inhibition at 1 µM [1] was -3%, the inhibition at 10 µM [1] was 4% and the inhibition at 1 µM [2] was 10%. For the same compound, the inhibition at 10 µM [2] was 22%, the inhibition at 1 µM [3] was 91% and the inhibition at 10 µM [3] was 97%. The inhibition at 1 µM [4] was 5%, the inhibition at 10 µM [4] was 8% and the inhibition at 1 µM [5] was 3%. For the same compound, the inhibition at 10 µM [5] was 3%, the inhibition at 1 µM [6] was 6% and the inhibition at 10 µM [6] was 17%. It also gave an inhibition at 1 µM [7] of 4%, an inhibition at 10 µM [7] of 21% and an inhibition at 1 µM [8] of 13%. It also gave an inhibition at 10 µM [8] of 11%, an inhibition at 1 µM [9] of 11% and an inhibition at 10 µM [9] of 25%.
Compound `COc1ccc2cc3c(N)nn(C(=O)c4cccc(N(C)C)c4)c3nc2c1` [MW05, (3-Amino-7-methoxypyrazolo[3,4-b]quinolin-1-yl)-[3-(dimethylamino)phenyl]methanone] has an inhibition at 1 µM [1] of 5%, an inhibition at 10 µM [1] of -11% and an inhibition at 1 µM [2] of 16%. For the same compound, the inhibition at 10 µM [2] was 2%, the inhibition at 1 µM [3] was 15% and the inhibition at 10 µM [3] was 61%. For the same compound, the inhibition at 1 µM [4] was 7%, the inhibition at 10 µM [4] was -2% and the inhibition at 1 µM [5] was -7%. It also gave an inhibition at 10 µM [5] of -26%, an inhibition at 1 µM [6] of 12% and an inhibition at 10 µM [6] of -15%. It also gave an inhibition at 1 µM [7] of 2%, an inhibition at 10 µM [7] of -15% and an inhibition at 1 µM [8] of 0%. It also gave an inhibition at 10 µM [8] of -5%, an inhibition at 1 µM [9] of 13% and an inhibition at 10 µM [9] of 15%.
